According to patent US20160015637A1, “ANTI-ITCHING POWDER” (Lilac Laboratory Co., Ltd., priority 2014, published 2016):

Test: itch prevention effect experiment (somesthetic testing, powder applied to the skin over the whole body)
Type: in vivo, examinees (male: 2, female: 1)
Conditions: for proportion of itch: itches without application set to 100, climbing/running 100 times, eight hours from test start; for itch removal / itch prevention effect bodily sensed: somesthetic testing, result in words
Description: Purpose of Experiment The fine powder of the aluminum chloride hexahydrate and the cyclodextrin (referred to as the CD) were each used alone for application to the skin over the whole body. From the result, whether the itch prevention effect was able to be bodily sensed or not was determined through somesthetic testing.
Participated Examinees three (male: 2, female: 1)
Testing Method Fine powder compositions of Experiment 1 to Experiment 3 were applied to the skin over the whole body. The climbing of a low mountain (altitude: 300 to 400 m) of 2 to 20 km and running of 2 to 15 km were executed 100 times appropriately for all seasons and for two years with the respective samples. Whether the itch was clearly removed or not and the appearance of the itch was able to be prevented or not were measured setting eight hours from the test start as terminal time. During the period, the somesthetic testing was conducted for determination. The total count of itches developed without application of various kinds of fine powder agents to the skin over the whole body (the head, the face, the body, and the entire feet) was set to 100. The degree of the itch was indicated by a “proportion of itch.”

Row | Structure (SMILES) | proportion of itch [%] | itch removal / itch prevention effect bodily sensed
1 | OC[C@H]1O[C@@H]2O[C@H]3[C@H](O)[C@@H](O)[C@@H](O[C@H]4[C@H](O)[C@@H](O)[C@@H](O[C@H]5[C@H](O)[C@@H](O)[C@@H](O[C@H]6[C@H](O)[C@@H](O)[C@@H](O[C@H]7[C@H](O)[C@@H](O)[C@@H](O[C@H]1[C@H](O)[C@H]2O)O[C@@H]7CO)O[C@@H]6CO)O[C@@H]5CO)O[C@@H]4CO)O[C@@H]3CO [α-CD] | 100 | The itch was not removed
2 | OC[C@H]1O[C@@H]2O[C@H]3[C@H](O)[C@@H](O)[C@@H](O[C@H]4[C@H](O)[C@@H](O)[C@@H](O[C@H]5[C@H](O)[C@@H](O)[C@@H](O[C@H]6[C@H](O)[C@@H](O)[C@@H](O[C@H]7[C@H](O)[C@@H](O)[C@@H](O[C@H]8[C@H](O)[C@@H](O)[C@@H](O[C@H]1[C@H](O)[C@H]2O)O[C@@H]8CO)O[C@@H]7CO)O[C@@H]6CO)O[C@@H]5CO)O[C@@H]4CO)O[C@@H]3CO [β-CD] | 100 | the itch prevention effect was not able to be bodily sensed
3 | OC[C@H]1O[C@@H]2O[C@H]3[C@H](O)[C@@H](O)[C@@H](O[C@H]4[C@H](O)[C@@H](O)[C@@H](O[C@H]5[C@H](O)[C@@H](O)[C@@H](O[C@H]6[C@H](O)[C@@H](O)[C@@H](O[C@H]7[C@H](O)[C@@H](O)[C@@H](O[C@H]8[C@H](O)[C@@H](O)[C@@H](O[C@H]9[C@H](O)[C@@H](O)[C@@H](O[C@H]1[C@H](O)[C@H]2O)O[C@@H]9CO)O[C@@H]8CO)O[C@@H]7CO)O[C@@H]6CO)O[C@@H]5CO)O[C@@H]4CO)O[C@@H]3CO [γ-CD] | 100 | the itch prevention effect was not able to be bodily sensed
